According to PubChem BioAssay AID1259371 (The Scripps Research Institute Molecular Screening Center, 2018):
pIC50: −log10 of the molar value. The source made the active and inactive calls. How the calls were made is not given here.

Molecular target: Microphthalmia-associated transcription factor (Homo sapiens) (UniProt O75030)
Experiment: compounds blocking human MITF signal – biochemical, AlphaScreen, dose response (AID 1259371)
Conditions: AlphaScreen biochemical MITF assay, signal inhibition

Microphthalmia-associated transcription factor (Homo sapiens), sequence (O75030 whole entry, looked up): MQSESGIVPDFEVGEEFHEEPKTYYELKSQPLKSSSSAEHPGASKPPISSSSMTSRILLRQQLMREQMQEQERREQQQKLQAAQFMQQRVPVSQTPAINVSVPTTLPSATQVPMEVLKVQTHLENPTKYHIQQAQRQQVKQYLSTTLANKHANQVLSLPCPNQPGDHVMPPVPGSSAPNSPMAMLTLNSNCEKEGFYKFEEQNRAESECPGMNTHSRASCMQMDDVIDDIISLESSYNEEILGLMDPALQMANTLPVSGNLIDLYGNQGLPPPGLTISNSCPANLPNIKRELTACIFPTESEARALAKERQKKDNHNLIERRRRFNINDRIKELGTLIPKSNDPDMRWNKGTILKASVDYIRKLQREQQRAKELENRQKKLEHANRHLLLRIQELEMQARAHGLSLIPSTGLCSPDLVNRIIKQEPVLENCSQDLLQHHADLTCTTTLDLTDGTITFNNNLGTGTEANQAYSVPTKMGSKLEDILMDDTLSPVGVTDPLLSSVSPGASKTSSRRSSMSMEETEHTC

Row | SMILES | IC50 | pIC50
1 | COc1ccccc1C1(NC(=O)CCCCC2SCC3NC(=O)NC32)CCCC1 (stereo not drawn) | inactive | 
2 | CN(C)/C=C/C=C/C(=O)C1CCC/C(=C\C=C\N(C)C)C1=O (stereo not drawn) |  | 7.07
3 | COc1ccc(S(=O)(=O)CCC(=O)Nc2nc3ccc(OC)cc3s2)cc1 | > 4550 nM (inactive) | 
4 | CCC[C@@H]1NC(=O)[C@H]2CN(C(=O)NCc3ccccc3)CCN2C1=O |  | 6.08
5 | O=C(OCN1C(=O)c2ccccc2C1=O)c1cc2c(s1)CCC2 |  | 6.13
6 | Oc1ccc(CCNc2cc(-c3cccs3)ncn2)cc1 | > 6700 nM (inactive) | 
7 | O=C(O)c1cc(-n2cccc2)ccc1Cl |  | 6.57
8 | Nc1ccc(NCCO)c(N)c1 | inactive | 
9 | N#CC(C#N)=Cc1cccn1-c1ccc(C(=O)O)cc1 | inactive | 
10 | Cc1ccccc1/C=C1\N=C(c2cc(C3=N/C(=C/c4ccccc4C)C(=O)O3)cc(C3=N/C(=C/c4ccccc4C)C(=O)O3)c2)OC1=O | inactive | 
11 | Cc1nnc(CNC(=O)c2ccc(-n3cccc3)cc2)o1 | inactive | 
12 | O=c1[nH]cccc1-c1ccc(Nc2nccc(-c3ccc4nc(C5CC5)[nH]c(=O)c4c3)n2)cc1 | inactive | 
13 | CCN(C(=O)C1COc2ccccc2O1)C12CC3CC(CC(C3)C1)C2 (stereo not drawn) | inactive | 
14 | O=C(NCc1cccnc1)c1ccnc(-c2cccs2)c1 | inactive | 
15 | COCCCNC(=O)/C(C#N)=C/c1ccc(OCC(=O)O)c(OC)c1 | inactive | 
16 | O=c1c(O)c(-c2ccc(O)cc2O)oc2cc(O)cc(O)c12 | inactive | 
17 | CCCCOc1ccc(C(=O)N/C(=C/c2ccco2)C(=O)O)cc1 | inactive | 
18 | C/C=C\C1=C(C(=O)O)N2C(=O)C(NC(=O)C(N)c3ccc(O)cc3)C2SC1 (stereo not drawn) | > 6480 nM (inactive) | 
19 | CC(O)C(=O)N/N=C/C=C/c1ccc([N+](=O)[O-])o1 (stereo not drawn) | inactive | 
20 | COC(=O)CN1C(=O)S/C(=C/c2ccc([N+](=O)[O-])o2)C1=O | inactive | 
21 | Clc1ccc(CN2CCN(Cc3c[nH]c4ccccc34)CC2)cc1 | inactive | 
22 | CC(=C/C(=O)O)/C=C/c1ccoc1 |  | 6.80
23 | O=C(Nc1cc(S(=O)(=O)O)cc2cc(S(=O)(=O)O)cc(O)c12)c1ccccc1 |  | 6.02
24 | N#CC1=C(N)n2c(s/c(=C\c3ccco3)c2=O)=C(C#N)C1c1ccco1 (stereo not drawn) |  | 8.41
25 | S=c1[nH]nc(-c2ccco2)n1/N=C/C=C/c1ccco1 |  | 8.28
26 | NS(=O)(=O)c1ccc(N=Cc2cc3c(cc2[N+](=O)[O-])OCO3)cc1 | inactive | 

Row | SMILES | IC50 | pIC50
27 | O=C1c2ccc([N+](=O)[O-])cc2C(=O)N1c1cc(Br)c(O)c(Br)c1 |  | 6.79
28 | O=C(O)c1cccc2c1C(=O)N(c1ccccc1)C2 | inactive | 
29 | CC(=O)CC1=C(C(=O)O)N2C(=O)C(N)C2SC1 (stereo not drawn) | > 6480 nM (inactive) | 
30 | C[C@@H](O)[C@@H]1NC(=O)[C@H]2CN(C(=O)NC3CCCCC3)CCN2C1=O | inactive | 
31 | CCc1ccc(CN2CCN(Cc3cc(OC)c(O)c(OC)c3)CC2)cc1 | > 5790 nM (inactive) | 
32 | CCc1ccc(NC(=O)CS(=O)CC(=O)NCCCc2ccccc2)cc1 (stereo not drawn) | > 6480 nM (inactive) | 
33 | NC(=O)COC(=O)/C=C/c1ccc(I)o1 | inactive | 
34 | COc1ccc(CN2CCN(Cc3cccc(Cl)c3)CC2)cc1Br | inactive | 
35 | CCN(CC)CC(=O)Nc1ccc(OC)cc1 | > 6480 nM (inactive) | 
36 | Cc1c(NC(=O)C(C)OC(=O)c2cc3c(s2)CCC3)c(=O)n(-c2ccccc2)n1C (stereo not drawn) |  | 6.02
37 | O=C1N[C@@H](Cc2c[nH]c3ccccc23)C(=O)N2CCN(C(=O)NC3CCCCC3)C[C@H]12 | inactive | 
38 | O=C(NC1CCCCC1)N1CCN2C(=O)[C@@H]3C[C@@H](O)CN3C(=O)[C@H]2C1 | inactive | 
39 | CCC(C)NCCOc1cccc(Br)c1 (stereo not drawn) | > 6480 nM (inactive) | 
40 | c1cncc(CNc2nc(Nc3ccc(N4CCOCC4)cc3)c3ncn(C4CCCCC4)c3n2)c1 | > 4840 nM (inactive) | 
41 | COc1ccc2c3c(cccc13)C(=O)N(C)C2=O | inactive | 
42 | N#CC1=c2/c(=C/c3ccco3)c(N)c(C#N)n2C(=O)C(c2ccco2)S1 (stereo not drawn) |  | 7.55
43 | Cn1cc(-c2nc(Nc3ccc(-n4cnc(N5CCOCC5)n4)cc3)ncc2Br)cn1 | inactive | 
44 | O=C(OC1CCCC1=O)c1ccc(Cl)c(S(=O)(=O)N2CCOCC2)c1 (stereo not drawn) | inactive | 
45 | COc1cc(C)c2c(c1C=O)Oc1c(c(C)c(O)c3c1C(O)OC3=O)OC2=O (stereo not drawn) |  | 6.33
46 | O=C(c1ccc([N+](=O)[O-])cc1)N1CCN(Cc2cccc3ccccc23)CC1 | > 5480 nM (inactive) | 
47 | O=C(Cc1cccs1)N/N=C\C=C\c1ccco1 |  | 7.07
48 | CN(C)CCn1nnnc1SCC1=C(C(=O)O)N2C(=O)[C@@H](NC(=O)Cc3csc(N)n3)[C@H]2SC1 |  | 6.67
49 | CC(C)[C@H]1NC(=O)[C@H]2CN(C(=O)NC3CCCCC3)CCN2C1=O | inactive | 
50 | N/C(=N\[N+](=O)[O-])N/N=C\c1ccc(-c2ccc(O)c(C(=O)O)c2)o1 |  | 6.89
51 | COc1ccc2c(c1)CC(C(=O)Nc1ccc(-c3cn[nH]c3)cc1OCC#N)CO2 (stereo not drawn) | inactive | 
52 | CC1=C(C#N)C(c2cc3c(cc2[N+](=O)[O-])OCO3)C2=C(CCCC2=O)N1 (stereo not drawn) | inactive | 

Row | SMILES | IC50 | pIC50
53 | CCOc1ccccc1N1CCN(Cc2cc(OC)c(O)c([N+](=O)[O-])c2)CC1 | > 6480 nM (inactive) | 
54 | CN(C)CCOCCOc1ccccc1-c1ccccc1 | inactive | 
55 | COc1ccc(CCNC(=O)CN2CCN(Cc3nc(-c4ccco4)cs3)CC2)cc1OC | inactive | 
56 | O=C(O)c1ccc(O)c(C=Nc2ccc(N=Cc3cc(C(=O)O)ccc3O)cc2)c1 | inactive | 
57 | NC(=O)c1cc(NC(=O)COC(=O)COc2cccc(C(F)(F)F)c2)cc(C(N)=O)c1 | inactive | 
58 | Nc1ccc(O)c(C(=O)O)c1 |  | 7.73
59 | Brc1c(OCCN2CCNCC2)ccc2ccccc12 | inactive | 
60 | Cc1cc(OCCOCCN2CCNCC2)ccc1Cl | > 6480 nM (inactive) | 
61 | O=C1N[C@@H](Cc2ccccc2)C(=O)N2CCN(C(=O)NCc3ccccc3)C[C@H]12 | > 6480 nM (inactive) | 
62 | CN1CC[C@H](Oc2cc(-c3cn[nH]c3)ccc2NC(=O)OCc2ccccc2)C1 | inactive | 
63 | O=C(O)COc1ccc(-n2cccc2)cc1 |  | 6.49
64 | O=C(Nc1ccc(N2CCOCC2)cc1)c1ccc2nc(Nc3ccccn3)sc2c1 |  | 6.27
65 | CCC[C@@H]1NC(=O)[C@H]2CN(C(=O)NC3CCCCC3)CCN2C1=O |  | 6.12
66 | N#Cc1c(-c2ccc3c(c2)OCO3)nc(N2CCCCC2)[nH]c1=O | inactive | 
67 | NC(=O)NC(=O)COC(=O)c1c2c(nc3ccccc13)/C(=C\c1ccco1)CCC2 |  | 6.46
68 | O=C(Nc1ccc(N2CCOCC2)cc1)c1cccc(Nc2ccncn2)n1 | inactive | 
69 | CCOC(=O)Cc1[nH]nc2c1C1(C(=O)N(CC)c3ccccc31)C(C#N)=C(N)O2 (stereo not drawn) | > 6480 nM (inactive) | 
70 | O=C(c1ccc2c(c1)C(=O)N(Cc1cccnc1)C2=O)c1ccc2c(c1)C(=O)N(Cc1cccnc1)C2=O | inactive | 
71 | O=C(O)CCC(NCc1ccco1)C(=O)O (stereo not drawn) |  | 6.09
72 | Cc1ccc(COc2ccc(/C=N/N=C3\NC(=O)C(CC(=O)O)S3)cc2)cc1 (stereo not drawn) | inactive | 
73 | O=C(OC1(C(F)(F)F)C(=O)Nc2cc3c(cc21)OCO3)c1ccc(Cl)nc1 (stereo not drawn) |  | 6.75
74 | CCCCn1c(=O)[nH]c(=O)c2c1nc(-c1ccc([N+](=O)[O-])o1)n2C |  | 7.18
75 | O=C(O)c1cc(N/N=C/c2ccc(N3CCOCC3)s2)ccc1Cl |  | 6.93
76 | Cc1ccn2c(NCC3CCCO3)c(-c3ccc(O)cc3O)nc2c1 (stereo not drawn) |  | 7.09
77 | COc1ccc(C[C@@H]2NC(=O)[C@H]3CN(C(=O)NC4CCCCC4)CCN3C2=O)cc1 | inactive | 
78 | C[C@@H](O)[C@@H]1NC(=O)[C@H]2CN(C(=O)NCc3ccccc3)CCN2C1=O | > 2160 nM (inactive) | 

Row | SMILES | IC50 | pIC50
79 | c1ccc(COc2ccc(OCCCCn3ccnc3)cc2)cc1 | > 6480 nM (inactive) | 
80 | O=C(NCc1ccccc1)N1CCN2C(=O)[C@@H]3CSCN3C(=O)[C@H]2C1 | inactive | 
81 | CCOC(=O)N1CCC(NC(=O)CCc2nc(C3=CCN(C)CC3)no2)CC1 | inactive | 
82 | O=C(Nc1ccc(-c2ccncc2)c(C(F)(F)F)c1)C1COc2ccccc2O1 (stereo not drawn) | inactive | 
83 | O=[N+]([O-])c1cc(C=Nc2ccc(N3CCOCC3)cc2)c(O)c([N+](=O)[O-])c1 |  | 6.12
84 | O=C(O)c1cc(S(=O)(=O)Nc2ccc3cn[nH]c3c2)ccc1O | inactive | 
85 | Cc1ccc(/C=C/C(=O)NCc2ccccn2)o1 | inactive | 
86 | COC(C)(C)CNC(=O)C1CCN(C2CCN(Cc3cccc(C)n3)CC2)CC1 | inactive | 
87 | COc1ccc2c(c1)CC(c1nc(Nc3ccc4cnccc4c3)c3ccccc3n1)CO2 (stereo not drawn) | > 6480 nM (inactive) | 
88 | Cc1ccc([N+](=O)[O-])cc1S(=O)(=O)Nc1ccc(Nc2ncccc2[N+](=O)[O-])cc1 |  | 6.37
89 | CCC(C)c1ccccc1OCCNCCN(C)C (stereo not drawn) | > 6480 nM (inactive) | 
90 | O=C(O)c1cc([N+](=O)[O-])cc2c1-c1c(cc([N+](=O)[O-])cc1[N+](=O)[O-])/C2=C/c1ccco1 | inactive | 
91 | COc1ccc(OC)c(CN2CCN(Cc3ccc(F)cc3)CC2)c1 | > 6110 nM (inactive) | 
92 | CC(=O)Oc1ccccc1N1C(=O)c2ccc(Oc3cccc(N)c3)cc2C1=O |  | 6.32
93 | O=C1Nc2ccc(S(=O)(=O)NCc3ccccc3)cc2C1=O | inactive | 
94 | NC(=O)n1c(CCC(=O)O)nc2sc3c(c2c1=O)CCC3 |  | 6.68
95 | O=C(O)c1cc(-c2ccco2)nc2ccccc12 | inactive | 
96 | COc1cc(OC)c(OC)cc1CN1CCN(Cc2ccc(C)cc2)CC1 | > 5760 nM (inactive) | 
97 | CN1CCN(C(=O)c2ccc(-c3nc(Nc4ccccc4)c4ncn(C5CCCCC5)c4n3)cc2)CC1 | > 7630 nM (inactive) | 
98 | CCc1ccc(CN2CCN(C(C)C)CC2)cc1 | > 6890 nM (inactive) | 
99 | C[C@@H](OCc1ccccc1)[C@@H]1NC(=O)[C@H]2CN(C(=O)NCc3ccccc3)CCN2C1=O | inactive | 
100 | O=C(O)c1cccc(N2C(=O)CC(Nc3ccc(N4CCOCC4)cc3)C2=O)c1 (stereo not drawn) |  | 6.62
101 | CC(C)C[C@@H]1NC(=O)[C@H]2CN(C(=O)NC3CCCCC3)CCN2C1=O |  | 6.01
102 | O=C(c1ccncc1)N1CCN(Cc2ccccc2[N+](=O)[O-])CC1 | > 6130 nM (inactive) | 
103 | CC(=O)NC1=NC(=O)/C(=C\c2ccc(Br)o2)S1 |  | 6.82
